Results as given in ChEMBL document CHEMBL4507268 (2021).

What was measured:
[1] = target: Dual serine/threonine and tyrosine protein kinase (Homo sapiens) (UniProt Q6XUX3); settings: Compound concentration 1000.0 nM
[2] = target: Serine/threonine-protein kinase 32B (Homo sapiens) (UniProt Q9NY57); settings: Compound concentration 1000.0 nM
[3] = target: RAC-alpha serine/threonine-protein kinase (Homo sapiens) (UniProt P31749); settings: Compound concentration 1000.0 nM
[4] = target: 5-hydroxytryptamine receptor 1B (Homo sapiens) (UniProt P28222); settings: Compound concentration 10.0 uM
5-hydroxytryptamine receptor 1B (Homo sapiens), sequence (P28222 whole entry): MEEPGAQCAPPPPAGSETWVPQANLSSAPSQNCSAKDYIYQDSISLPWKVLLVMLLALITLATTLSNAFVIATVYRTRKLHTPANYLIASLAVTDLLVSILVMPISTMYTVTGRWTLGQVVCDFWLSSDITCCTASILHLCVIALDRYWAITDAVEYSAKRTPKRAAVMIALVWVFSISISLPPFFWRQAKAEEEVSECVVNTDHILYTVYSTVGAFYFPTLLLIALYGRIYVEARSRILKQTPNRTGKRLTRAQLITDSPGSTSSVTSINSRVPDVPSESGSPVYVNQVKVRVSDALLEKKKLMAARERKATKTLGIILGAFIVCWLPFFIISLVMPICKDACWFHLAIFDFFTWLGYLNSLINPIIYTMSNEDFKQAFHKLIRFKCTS

[5] = target: T1, Rhodopsin kinase GRK1 (Homo sapiens) (UniProt Q15835); settings: Compound concentration 1000.0 nM
T1 sequence (whole entry): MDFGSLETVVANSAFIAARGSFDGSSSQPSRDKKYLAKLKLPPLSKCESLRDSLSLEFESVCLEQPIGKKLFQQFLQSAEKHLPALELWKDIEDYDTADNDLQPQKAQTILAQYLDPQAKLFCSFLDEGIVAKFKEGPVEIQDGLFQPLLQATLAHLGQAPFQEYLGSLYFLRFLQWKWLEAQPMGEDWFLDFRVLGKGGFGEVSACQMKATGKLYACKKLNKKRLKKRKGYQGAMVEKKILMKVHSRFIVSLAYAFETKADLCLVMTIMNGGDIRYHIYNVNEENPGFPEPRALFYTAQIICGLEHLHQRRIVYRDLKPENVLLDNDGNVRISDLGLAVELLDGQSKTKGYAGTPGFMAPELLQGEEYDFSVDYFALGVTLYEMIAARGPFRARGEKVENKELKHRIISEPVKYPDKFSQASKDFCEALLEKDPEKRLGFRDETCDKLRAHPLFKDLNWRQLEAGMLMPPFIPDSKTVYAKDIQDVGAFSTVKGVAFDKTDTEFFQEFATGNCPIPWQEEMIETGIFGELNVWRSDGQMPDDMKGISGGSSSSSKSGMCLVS

[6] = target: Cyclin-G-associated kinase (Homo sapiens) (UniProt O14976); settings: Compound concentration 1000.0 nM
[7] = target: Sigma intracellular receptor 2 (Homo sapiens, UniProt Q5BJF2); settings: Compound concentration 10.0 uM
Sigma intracellular receptor 2, sequence (Q5BJF2 whole entry): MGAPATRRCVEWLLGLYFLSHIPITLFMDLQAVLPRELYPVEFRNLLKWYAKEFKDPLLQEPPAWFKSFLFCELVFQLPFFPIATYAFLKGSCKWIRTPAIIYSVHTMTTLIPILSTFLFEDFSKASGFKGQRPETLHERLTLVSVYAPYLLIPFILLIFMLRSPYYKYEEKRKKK

[8] = test system: Leucine-rich repeat serine/threonine-protein kinase 2 (Homo sapiens), Q5S007 [G2019S]; settings: Compound concentration 1000.0 nM
Leucine-rich repeat serine/threonine-protein kinase 2 (Homo sapiens), Q5S007 [G2019S], sequence (Q5S007 whole entry G2019S): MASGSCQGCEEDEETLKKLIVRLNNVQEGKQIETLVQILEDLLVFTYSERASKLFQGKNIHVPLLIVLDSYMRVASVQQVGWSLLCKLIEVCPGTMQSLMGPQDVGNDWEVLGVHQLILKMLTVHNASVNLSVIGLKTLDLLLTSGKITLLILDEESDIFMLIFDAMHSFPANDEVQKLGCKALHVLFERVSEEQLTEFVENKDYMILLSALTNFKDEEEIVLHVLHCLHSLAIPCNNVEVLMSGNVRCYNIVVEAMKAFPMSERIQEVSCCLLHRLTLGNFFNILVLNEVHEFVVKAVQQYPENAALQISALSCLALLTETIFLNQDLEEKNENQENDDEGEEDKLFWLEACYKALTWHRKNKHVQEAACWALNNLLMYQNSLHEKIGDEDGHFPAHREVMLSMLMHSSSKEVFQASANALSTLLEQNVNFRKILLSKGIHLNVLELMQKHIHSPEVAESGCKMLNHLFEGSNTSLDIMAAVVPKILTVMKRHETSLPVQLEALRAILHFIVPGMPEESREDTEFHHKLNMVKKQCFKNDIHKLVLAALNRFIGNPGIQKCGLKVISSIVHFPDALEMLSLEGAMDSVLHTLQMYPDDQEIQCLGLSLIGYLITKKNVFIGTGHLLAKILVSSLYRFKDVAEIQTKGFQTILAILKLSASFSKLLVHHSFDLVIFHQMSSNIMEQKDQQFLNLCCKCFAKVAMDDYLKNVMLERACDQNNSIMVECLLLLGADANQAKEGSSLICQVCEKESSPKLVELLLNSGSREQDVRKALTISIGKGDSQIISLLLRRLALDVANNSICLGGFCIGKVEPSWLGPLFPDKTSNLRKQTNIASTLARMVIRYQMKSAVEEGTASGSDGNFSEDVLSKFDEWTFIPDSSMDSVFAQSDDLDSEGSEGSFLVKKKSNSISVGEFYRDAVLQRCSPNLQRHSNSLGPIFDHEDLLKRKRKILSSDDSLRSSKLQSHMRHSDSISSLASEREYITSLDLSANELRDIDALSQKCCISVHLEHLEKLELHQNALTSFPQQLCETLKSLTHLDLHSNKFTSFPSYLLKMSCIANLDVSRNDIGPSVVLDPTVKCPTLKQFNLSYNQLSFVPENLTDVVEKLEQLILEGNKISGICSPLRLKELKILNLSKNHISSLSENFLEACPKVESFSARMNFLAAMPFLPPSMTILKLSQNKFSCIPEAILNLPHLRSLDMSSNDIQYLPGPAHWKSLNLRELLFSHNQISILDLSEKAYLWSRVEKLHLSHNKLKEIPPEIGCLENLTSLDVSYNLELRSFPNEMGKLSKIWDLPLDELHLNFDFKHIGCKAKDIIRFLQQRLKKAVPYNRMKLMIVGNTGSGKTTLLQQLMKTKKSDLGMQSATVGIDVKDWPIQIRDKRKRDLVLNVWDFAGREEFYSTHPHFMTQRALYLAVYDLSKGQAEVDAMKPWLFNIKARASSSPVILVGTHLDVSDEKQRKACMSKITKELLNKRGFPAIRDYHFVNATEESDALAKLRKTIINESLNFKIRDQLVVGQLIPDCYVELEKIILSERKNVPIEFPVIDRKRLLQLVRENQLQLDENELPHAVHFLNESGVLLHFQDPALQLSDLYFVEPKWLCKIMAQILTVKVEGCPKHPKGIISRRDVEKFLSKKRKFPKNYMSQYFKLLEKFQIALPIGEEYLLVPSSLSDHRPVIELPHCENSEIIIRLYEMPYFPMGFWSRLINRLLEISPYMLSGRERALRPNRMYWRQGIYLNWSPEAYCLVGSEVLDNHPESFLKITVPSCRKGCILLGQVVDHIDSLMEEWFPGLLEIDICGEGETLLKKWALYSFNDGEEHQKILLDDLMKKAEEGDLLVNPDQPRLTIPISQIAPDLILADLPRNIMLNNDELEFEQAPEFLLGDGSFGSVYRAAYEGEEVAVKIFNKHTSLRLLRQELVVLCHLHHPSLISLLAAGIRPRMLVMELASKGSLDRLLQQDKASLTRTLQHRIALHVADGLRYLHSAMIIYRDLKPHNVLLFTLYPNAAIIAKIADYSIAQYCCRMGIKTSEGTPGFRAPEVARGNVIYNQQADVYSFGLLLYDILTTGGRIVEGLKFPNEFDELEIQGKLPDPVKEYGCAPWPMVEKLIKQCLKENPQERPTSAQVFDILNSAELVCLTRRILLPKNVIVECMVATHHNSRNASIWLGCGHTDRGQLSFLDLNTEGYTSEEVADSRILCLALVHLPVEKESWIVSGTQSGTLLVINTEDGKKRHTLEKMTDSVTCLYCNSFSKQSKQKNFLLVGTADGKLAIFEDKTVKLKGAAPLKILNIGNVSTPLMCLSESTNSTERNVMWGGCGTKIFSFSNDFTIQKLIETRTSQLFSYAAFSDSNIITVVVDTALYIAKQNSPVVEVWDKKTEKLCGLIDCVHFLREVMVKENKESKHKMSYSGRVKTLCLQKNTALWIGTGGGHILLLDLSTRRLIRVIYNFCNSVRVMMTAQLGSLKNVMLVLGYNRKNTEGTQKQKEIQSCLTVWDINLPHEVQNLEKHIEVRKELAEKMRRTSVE

[9] = target: Phosphatidylinositol 3-kinase catalytic subunit type 3 (Homo sapiens) (UniProt Q8NEB9); settings: Compound concentration 1000.0 nM
[10] = target: 5-hydroxytryptamine receptor 7 (Homo sapiens) (UniProt P34969); settings: Compound concentration 10.0 uM
[11] = target: ALK tyrosine kinase receptor (Homo sapiens) (UniProt Q9UM73); settings: Compound concentration 1000.0 nM
[12] = target: Calcium/calmodulin-dependent protein kinase kinase 1 (Homo sapiens) (UniProt Q8N5S9); settings: Compound concentration 1000.0 nM
Calcium/calmodulin-dependent protein kinase kinase 1 (Homo sapiens), sequence (Q8N5S9 whole entry, looked up): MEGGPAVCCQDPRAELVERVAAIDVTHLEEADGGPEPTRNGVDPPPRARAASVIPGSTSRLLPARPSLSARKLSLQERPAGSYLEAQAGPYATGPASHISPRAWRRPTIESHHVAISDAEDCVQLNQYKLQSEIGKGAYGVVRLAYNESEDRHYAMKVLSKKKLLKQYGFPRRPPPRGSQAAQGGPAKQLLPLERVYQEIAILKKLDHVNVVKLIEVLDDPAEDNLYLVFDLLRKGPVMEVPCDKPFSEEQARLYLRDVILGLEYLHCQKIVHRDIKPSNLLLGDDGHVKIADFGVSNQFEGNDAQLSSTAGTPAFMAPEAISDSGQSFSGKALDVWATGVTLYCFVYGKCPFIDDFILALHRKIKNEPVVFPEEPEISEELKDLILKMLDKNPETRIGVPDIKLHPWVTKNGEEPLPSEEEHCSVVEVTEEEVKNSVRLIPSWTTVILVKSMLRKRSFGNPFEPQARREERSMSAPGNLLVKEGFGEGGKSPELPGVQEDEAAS

[13] = target: Tyrosine-protein kinase Fgr (Homo sapiens) (UniProt P09769); settings: Compound concentration 1000.0 nM
[14] = target: Ribosomal protein S6 kinase alpha-4 (Homo sapiens) (UniProt O75676); settings: Compound concentration 1000.0 nM
[15] = target: Mitogen-activated protein kinase kinase kinase 4 (Homo sapiens) (UniProt Q9Y6R4); settings: Compound concentration 1000.0 nM
[16] = target: T2, Serine/threonine-protein kinase NLK (Homo sapiens) (UniProt Q9UBE8); settings: Compound concentration 1000.0 nM
T2 sequence (whole entry): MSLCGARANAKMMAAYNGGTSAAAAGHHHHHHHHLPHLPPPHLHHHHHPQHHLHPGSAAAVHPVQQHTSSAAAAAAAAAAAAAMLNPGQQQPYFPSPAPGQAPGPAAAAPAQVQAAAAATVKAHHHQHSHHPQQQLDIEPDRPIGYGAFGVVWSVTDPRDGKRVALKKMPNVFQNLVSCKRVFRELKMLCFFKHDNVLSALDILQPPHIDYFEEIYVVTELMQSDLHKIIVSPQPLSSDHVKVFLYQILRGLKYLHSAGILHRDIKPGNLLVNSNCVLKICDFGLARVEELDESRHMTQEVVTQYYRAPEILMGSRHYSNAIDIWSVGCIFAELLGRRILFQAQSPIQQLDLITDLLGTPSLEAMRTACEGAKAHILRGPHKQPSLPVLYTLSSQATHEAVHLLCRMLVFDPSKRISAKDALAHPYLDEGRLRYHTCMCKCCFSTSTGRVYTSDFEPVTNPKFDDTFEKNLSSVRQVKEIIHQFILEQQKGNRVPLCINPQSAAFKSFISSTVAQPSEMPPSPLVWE

[17] = target: T3, Homeodomain-interacting protein kinase 4 (Homo sapiens) (UniProt Q8NE63); settings: Compound concentration 1000.0 nM
T3 sequence (whole entry): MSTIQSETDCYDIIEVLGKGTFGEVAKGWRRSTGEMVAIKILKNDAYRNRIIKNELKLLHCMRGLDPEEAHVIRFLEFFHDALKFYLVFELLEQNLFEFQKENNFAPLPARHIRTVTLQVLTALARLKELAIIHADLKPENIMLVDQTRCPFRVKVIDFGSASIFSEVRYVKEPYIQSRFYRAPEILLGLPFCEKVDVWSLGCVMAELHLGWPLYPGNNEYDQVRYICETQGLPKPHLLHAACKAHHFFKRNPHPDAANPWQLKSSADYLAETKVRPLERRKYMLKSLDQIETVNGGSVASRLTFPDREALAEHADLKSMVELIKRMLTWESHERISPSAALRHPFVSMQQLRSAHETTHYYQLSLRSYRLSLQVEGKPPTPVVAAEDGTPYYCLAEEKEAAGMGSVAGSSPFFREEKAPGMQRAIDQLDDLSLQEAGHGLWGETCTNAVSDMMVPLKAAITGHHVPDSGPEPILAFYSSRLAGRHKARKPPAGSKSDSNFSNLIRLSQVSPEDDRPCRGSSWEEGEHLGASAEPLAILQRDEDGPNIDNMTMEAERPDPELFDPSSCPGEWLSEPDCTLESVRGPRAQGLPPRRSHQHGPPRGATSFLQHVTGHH

[18] = target: Mitogen-activated protein kinase kinase kinase 11 (Homo sapiens) (UniProt Q16584); settings: Compound concentration 1000.0 nM
[19] = target: 5-hydroxytryptamine receptor 2B (Homo sapiens) (UniProt P41595); settings: Compound concentration 10.0 uM
5-hydroxytryptamine receptor 2B (Homo sapiens), sequence (P41595 whole entry): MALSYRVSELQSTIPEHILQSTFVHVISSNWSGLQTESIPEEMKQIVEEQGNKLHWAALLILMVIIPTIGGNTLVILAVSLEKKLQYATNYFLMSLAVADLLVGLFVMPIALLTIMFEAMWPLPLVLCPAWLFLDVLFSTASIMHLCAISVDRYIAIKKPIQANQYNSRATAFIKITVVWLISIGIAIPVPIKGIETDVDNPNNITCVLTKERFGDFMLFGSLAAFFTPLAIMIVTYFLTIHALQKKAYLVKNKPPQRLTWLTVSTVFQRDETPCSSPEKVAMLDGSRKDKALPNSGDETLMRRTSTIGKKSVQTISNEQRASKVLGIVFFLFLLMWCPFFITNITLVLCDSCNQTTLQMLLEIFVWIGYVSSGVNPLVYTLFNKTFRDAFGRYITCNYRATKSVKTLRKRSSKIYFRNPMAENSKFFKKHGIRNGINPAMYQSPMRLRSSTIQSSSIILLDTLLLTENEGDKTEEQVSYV

[20] = target: Serine/threonine-protein kinase MRCK gamma (Homo sapiens) (UniProt Q6DT37); settings: Compound concentration 1000.0 nM

Dual serine/threonine and tyrosine protein kinase (Homo sapiens), sequence (Q6XUX3 whole entry): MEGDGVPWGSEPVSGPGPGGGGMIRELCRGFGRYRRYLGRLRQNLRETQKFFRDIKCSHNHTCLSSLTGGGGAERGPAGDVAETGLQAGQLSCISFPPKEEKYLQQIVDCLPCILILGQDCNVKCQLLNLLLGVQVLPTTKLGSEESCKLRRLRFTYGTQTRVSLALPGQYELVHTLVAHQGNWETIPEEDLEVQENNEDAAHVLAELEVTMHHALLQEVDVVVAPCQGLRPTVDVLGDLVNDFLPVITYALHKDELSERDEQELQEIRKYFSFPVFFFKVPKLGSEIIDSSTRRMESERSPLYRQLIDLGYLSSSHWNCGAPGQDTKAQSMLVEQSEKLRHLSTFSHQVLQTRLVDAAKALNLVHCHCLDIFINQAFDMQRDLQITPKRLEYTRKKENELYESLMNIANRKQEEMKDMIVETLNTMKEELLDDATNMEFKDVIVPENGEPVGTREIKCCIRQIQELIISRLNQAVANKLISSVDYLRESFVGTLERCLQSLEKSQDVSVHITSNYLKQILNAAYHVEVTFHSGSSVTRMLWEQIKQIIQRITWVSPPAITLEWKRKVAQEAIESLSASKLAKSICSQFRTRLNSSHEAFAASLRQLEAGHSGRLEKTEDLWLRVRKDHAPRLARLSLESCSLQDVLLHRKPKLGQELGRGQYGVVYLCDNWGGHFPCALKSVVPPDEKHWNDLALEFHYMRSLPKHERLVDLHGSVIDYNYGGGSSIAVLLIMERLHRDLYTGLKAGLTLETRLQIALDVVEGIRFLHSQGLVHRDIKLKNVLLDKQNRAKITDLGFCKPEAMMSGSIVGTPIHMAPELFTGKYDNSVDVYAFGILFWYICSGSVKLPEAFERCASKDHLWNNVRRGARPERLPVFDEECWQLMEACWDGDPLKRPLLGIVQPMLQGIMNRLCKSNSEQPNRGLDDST

Structure (SMILES)	residual activity [1]	residual activity [2]	residual activity [3]	inhibition [4]	residual activity [5]	residual activity [6]	inhibition [7]	residual activity [8]	residual activity [9]	inhibition [10]	residual activity [11]	residual activity [12]	residual activity [13]	residual activity [14]	residual activity [15]	residual activity [16]	residual activity [17]	residual activity [18]	inhibition [19]	residual activity [20]
Cc1nc(C2CCN(C(=O)c3ccc(OC(F)(F)F)cc3N)CC2)c2ncc(N3CCN(C)CC3)cc2n1 [BAY-693]	95%	90%	100%	14.6%	100%	100%	51.4%	100%	95%	-0.78%	89%	100%	100%	100%	100%	100%	88%	100%	-1.28%	100%
CN1CCN(c2cnc3c(C4CCN(C(=O)c5ccc(OC(F)(F)F)cc5N)CC4)ncnc3c2)CC1 [BAY-885]	100%	87%	100%	14.9%	96%	100%	30.9%	100%	100%	-9.57%	99%	100%	100%	100%	95%	100%	100%	100%	3.56%	100%
